Values of other authors, collected in patent EP0890570A2, “Tertiary alkyl primary amines and process for preparing the same” (ROHM AND HAAS COMPANY, priority 1997, dated 1999).

Settings: conventional comparison amines, stated without source or method

## CCCCCCCCCN [n-nonylamine]
  pKa: 10

## CC(C)CCCCCCN [iso-nonylamine]
  pKa: 10
